Results from PubChem BioAssay (NCI).
“And” between values parts separate entries of the source, which are not always exact repeats. Equal values may be shown once.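 Interpolation was linear, between the two tested concentrations surrounding the appropriate level; five concentrations were tested over 48 hours in 96-well plates. Here, GI50 denotes the concentration required for 50% inhibition of growth. TGI: concentration producing complete growth inhibition.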

Key:
Assay in all cases: growth of human tumour cells (NCI), 48 h
[1] = tested on: SNB-75 CNS
[2] = tested on: IGROV1 ovarian
[3] = tested on: UO-31 renal
[4] = tested on: MDA-MB-231 breast
[5] = tested on: SN12C renal
[6] = tested on: U251 CNS
[7] = tested on: KM12 colon
[8] = tested on: MDA-N
[9] = tested on: SF-539 CNS
[10] = tested on: BT-549 breast
[11] = tested on: CCRF-CEM leukemia

SMILES | TGI [1] | TGI [2] | TGI [3] | TGI [4] [µM] | TGI [5] | TGI [6] | TGI [7] [µM] | TGI [8] | TGI [9] | TGI [10] | TGI [11] [µM] | GI50 [1] [µM] | GI50 [2] [µM] | GI50 [5] [µM] | GI50 [6] [µM] | GI50 [8] [µM] | GI50 [9] [µM] | GI50 [10] [µM]
CCOC(=O)[C@@H]1ON2OC(OC3CCCC3(c3ccccc3)c3ccccc3)C(OC(C)=O)[C@H]3OC(=O)[C@@H]1C32 (stereo partly specified) | > 100 µM | > 100 µM | > 100 µM | > 100 | > 100 µM | > 100 µM | > 100 | > 100 µM | > 100 µM | > 100 µM | > 100 | – | – | – | – | – | – | –
CCOC(=O)/C=C(\C(=O)OCC)n1ccc(=O)[nH]c1=O | 35.3 µM | 30.1 µM | 31.1 µM | 32.6 | 26.4 µM | 32.6 µM | 35.2 | 51.3 µM | 75.1 µM | 30.7 µM | 6.2 | – | – | – | – | – | – | –
O=C1CC2CCC(C1)S2=O (stereo unspecified) | > 100 µM | > 100 µM | > 100 µM | > 100 | > 100 µM | > 100 µM | > 100 | > 100 µM | > 100 µM | > 100 µM | > 100 | – | – | – | – | – | – | –
CC1(C)CCc2c(c(N=Nc3ccc(F)cc3)c3ccccc3c2O)O1 | 48.6 µM | > 100 µM | > 100 µM | > 100 | > 100 µM | > 100 µM | > 100 | 31.5 µM | > 100 µM | > 100 µM | 41 | – | – | – | – | – | – | –
CC1=C(C)C(=O)C(C2=CC(=O)C=CC2=O)=C(C2=CC(=O)C=CC2=O)C1=O | > 100 µM | > 100 µM | > 100 µM | 42.5 | > 71.8 µM | > 77.5 µM | > 100 | > 59.3 µM | 51.7 µM | > 100 µM | > 100 | – | – | – | – | – | – | –
CCCCCCCCCCCCCC(=O)N(CCCCCCCCC)CC(O)C(O)C(OC1OC(CO)C(O)C(O)C1O)C(O)CO (stereo unspecified) | 37.3 µM | 38.1 µM | 34.5 µM | 37.2 | 37.1 µM | 38.6 µM | 37.1 | 38.1 µM | 51.3 µM | 43.7 µM | 45.4 | – | – | – | – | – | – | –
CC(=O)/C(=C/N1CCNC1=S)C(=O)Nc1ccccc1C | > 100 µM | > 100 µM | > 100 µM | > 100 | > 100 µM | > 100 µM | > 100 | > 100 µM | > 100 µM | > 100 µM | > 100 | – | – | – | – | – | – | –
O=c1[nH]c(=S)c2cc3c(=S)[nH]c(=O)n(CCO)c3nc2n1CCO | > 100 µM | > 100 µM | > 100 µM | > 100 | > 100 µM | > 100 µM | > 100 | > 100 µM | > 100 µM | > 100 µM | > 100 | – | – | – | – | – | – | –
CN(C)CCCNCc1cccc2ccccc12 | > 100 µM | > 100 µM | > 100 µM | > 100 | > 100 µM | > 100 µM | > 100 | > 100 µM | > 100 µM | > 100 µM | > 100 | – | – | – | – | – | – | –
O=[N+]([O-])c1cccc2nccc(NCCCO)c12 | 62.6 µM | 27.5 µM | 35.3 µM | 41.4 | 28 µM | 31.3 µM | 24.6 | 22.2 µM | 29.4 µM | 21.6 µM | 57.5 | – | – | – | – | – | – | –
C=C(C(=O)O[C@H]1C(=O)C2=C(C)CCC3C(=C)C(=O)O[C@@H]3C2[C@]1(C)O)C1CC[C@]2(C)CCCC(=C)[C@H]2C1 (stereo partly specified) | 8.05 µM and 6.71 µM | 13.8 µM and 11.3 µM | 12 µM and 16.5 µM | 13.8 | 15.5 µM and 8.62 µM | 7.04 µM and 9.95 µM | 20.5 | 11.6 µM and 8.45 µM | 16.5 µM and 10.3 µM | 14 µM and 11.1 µM | 0.106 | 2.42 | 7.28 | 7.25 | 0.117 | 0.117 | 7.16 | 6.99
NC(N)=NCCCC(NC(=O)OCCCCn1ccc(N)nc1=O)C(=O)O (stereo unspecified) | > 100 µM | > 100 µM | > 100 µM | > 100 | > 100 µM | > 100 µM | > 100 | > 100 µM | > 100 µM | > 100 µM | > 100 | – | – | – | – | – | – | –
[N-]=[N+]=C(C(=O)N1CCCC1=O)S(=O)(=O)c1ccccc1 | > 100 µM | > 100 µM | > 100 µM | > 100 | > 100 µM | > 100 µM | > 100 | > 100 µM | > 100 µM | > 100 µM | > 100 | – | – | – | – | – | – | –
COc1ccc(C(=O)/C=C/c2cc(O)c(O)cc2F)c(OC)c1 | 20.7 µM | > 88.2 µM | 30.8 µM | 64.3 | 18 µM | 20.9 µM | > 79.9 | 53.4 µM | 31 µM | 24.4 µM | 15.2 | – | – | – | – | – | – | –
O=[N+]([O-])C(Cl)=C/C(=C(\Cl)SCc1ccccc1)[N+](=O)[O-] | > 100 µM | 91 µM | 40.2 µM | 59.3 | 45.3 µM | 34.9 µM | > 100 | 69.8 µM | 45 µM | 50.2 µM | 18 | – | – | – | – | – | – | –
Brc1ccc2c(-c3csc(-c4c[nH]c5ccccc45)n3)c[nH]c2c1 | 46.4 µM | 26.6 µM | 27.6 µM | 31 | 39.2 µM | 31.7 µM | 34.7 | 39.8 µM | 30.8 µM | 37.4 µM | 38.1 | – | – | – | – | 19.2 | – | –
COC(=O)c1c(O)ccc2c1c1c(n2Cc2ccccc2)C(=O)c2ccccc2C1 | 70.2 µM | > 100 µM | > 100 µM | > 100 | 45.4 µM | > 100 µM | > 100 | > 100 µM | > 100 µM | > 100 µM | 65.8 | – | – | – | – | – | – | –
Cn1c(O)c(C=Nc2ccccc2Cl)c(=O)n(C)c1=O | > 100 µM | > 100 µM | > 100 µM | > 100 | > 100 µM | > 100 µM | > 100 | > 100 µM | 60.7 µM | > 100 µM | 49 | – | – | – | – | – | – | –
